Converted amounts (≈) assume the structure as drawn. Where two headings read alike, the source gives them in different places. Where a SMILES comes first, the peptide text is derived from it.
Legend:
[1] = first concentration that prohibits growth by OD at 24 hours, Table 1

CC[C@H](C)[C@H](NC(=O)CNC(=O)[C@@H](NC(=O)[C@H](CCCCN)NC(=O)[C@H](CCCCN)NC(=O)[C@H](Cc1ccccc1)NC(=O)[C@H](CC(C)C)NC(=O)[C@H](CCCCN)NC(=O)[C@H](Cc1c[nH]c2ccccc12)NC(=O)[C@@H](N)CCCCN)[C@@H](C)CC)C(=O)NCC(=O)N[C@@H](CCCCN)C(=O)N[C@@H](Cc1ccccc1)C(=O)N[C@@H](CC(C)C)C(=O)N[C@@H](Cc1c[nH]cn1)C(=O)N[C@@H](CO)C(=O)N[C@@H](C)C(=O)N[C@@H](CCCCN)C(=O)N[C@@H](CCCCN)C(=O)N[C@@H](Cc1ccccc1)C(=O)O [Cec A Mag 2] (H-KWKLFKKIGIGKFLHSAKKF-OH; N-terminus and C-terminus assumed)
MIC E. coli (Escherichia coli; [1]): 32 µg/mL (≈ 13.3 µM)
MIC B. cereus (B. cereus): + (key: +: MIC greater than 256 ug/mL; ++: MIC greater than 128 ug/mL, not sufficiently soluble to test as 256 ug/mL)

CC[C@H](C)[C@H](NC(=O)CNC(=O)[C@H](CCC(=O)O)NC(=O)[C@H](CO)NC(=O)[C@@H](NC(=O)[C@H](CCCNC(=N)N)NC(=O)[C@H](CCCCN)NC(=O)[C@H](CCCCN)NC(=O)[C@H](C)NC(=O)[C@H](CO)NC(=O)[C@H](CC(N)=O)NC(=O)[C@H](CCC(=O)O)NC(=O)[C@H](CC(C)C)NC(=O)[C@H](CCCCN)NC(=O)[C@H](CCCCN)NC(=O)[C@H](C)NC(=O)[C@@H](NC(=O)[C@H](CCCCN)NC(=O)[C@H](CO)NC(=O)[C@H](CC(C)C)NC(=O)[C@H](Cc1c[nH]c2ccccc12)NC(=O)[C@@H](N)CO)[C@@H](C)O)[C@@H](C)CC)C(=O)N[C@@H](C)C(=O)N[C@H](C(=O)N[C@@H](C)C(=O)N[C@H](C(=O)N[C@@H](CCC(N)=O)C(=O)NCC(=O)NCC(=O)N1CCC[C@H]1C(=O)N[C@@H](CCCNC(=N)N)C(=O)O)[C@@H](C)CC)[C@@H](C)CC [Cecropin P1] (H-SWLSKTAKKLENSAKKRISEGIAIAIQGGPR-OH; N-terminus and C-terminus assumed)
MIC E. coli (Escherichia coli; [1]): 2 µg/mL (≈ 0.599 µM)
MIC B. cereus (B. cereus): + (key: +: MIC greater than 256 ug/mL; ++: MIC greater than 128 ug/mL, not sufficiently soluble to test as 256 ug/mL)

CC[C@H](C)[C@H](NC(=O)CN)C(=O)NCC(=O)N[C@@H](CCCCN)C(=O)N[C@@H](Cc1ccccc1)C(=O)N[C@@H](CC(C)C)C(=O)N[C@@H](Cc1c[nH]cn1)C(=O)N[C@@H](CO)C(=O)N[C@@H](C)C(=O)N[C@@H](CCCCN)C(=O)N[C@@H](CCCCN)C(=O)N[C@@H](Cc1ccccc1)C(=O)NCC(=O)N[C@@H](CCCCN)C(=O)N[C@@H](C)C(=O)N[C@@H](Cc1ccccc1)C(=O)N[C@H](C(=O)NCC(=O)N[C@@H](CCC(=O)O)C(=O)N[C@H](C(=O)N[C@@H](CCSC)C(=O)N[C@@H](CC(N)=O)C(=O)N[C@@H](CO)C(=O)O)[C@@H](C)CC)C(C)C [Magainin 2] (H-GIGKFLHSAKKFGKAFVGEIMNS-OH; N-terminus and C-terminus assumed)
MIC E. coli (Escherichia coli; 24 h): 64 µg/mL (≈ 25.9 µM)
MIC B. cereus (B. cereus; 24 h): 256 µg/mL (≈ 104 µM)

CC[C@H](C)[C@H](NC(=O)CN)C(=O)NCC(=O)N[C@@H](C)C(=O)N[C@H](C(=O)N[C@@H](CC(C)C)C(=O)N[C@@H](CCCCN)C(=O)N[C@H](C(=O)N[C@@H](CC(C)C)C(=O)N[C@H](C(=O)N[C@H](C(=O)NCC(=O)N[C@@H](CC(C)C)C(=O)N1CCC[C@H]1C(=O)N[C@@H](C)C(=O)N[C@@H](CC(C)C)C(=O)N[C@H](C(=O)N[C@@H](CO)C(=O)N[C@@H](Cc1c[nH]c2ccccc12)C(=O)N[C@H](C(=O)N[C@@H](CCCCN)C(=O)N[C@@H](CCCNC(=N)N)C(=O)N[C@@H](CCCCN)C(=O)N[C@@H](CCCNC(=N)N)C(=O)N[C@@H](CCC(N)=O)C(=O)N[C@@H](CCC(N)=O)C(N)=O)[C@@H](C)CC)[C@@H](C)CC)[C@@H](C)O)[C@@H](C)O)C(C)C)C(C)C [Melittin]
MIC B. cereus (B. cereus; 24 h): 8 µg/mL (≈ 2.81 µM)

CC(C)[C@H](N)C(=O)N[C@H](C(=O)N[C@@H](Cc1ccccc1)C(=O)N[C@@H](CCCNC(=N)N)C(=O)N[C@H](C(=O)N[C@@H](C)C(=O)N[C@@H](CO)C(=O)N[C@@H](CCCCN)C(=O)N[C@H](C(=O)N[C@@H](Cc1ccccc1)C(=O)N1CCC[C@H]1C(=O)N[C@@H](C)C(=O)N[C@H](C(=O)N[C@@H](Cc1ccc(O)cc1)C(=O)N[C@@H](CS)C(=O)N[C@H](C(=O)N[C@H](C(=O)N[C@@H](CO)C(=O)N[C@@H](CCCCN)C(=O)N[C@@H](CCCCN)C(=O)O)C(C)C)[C@@H](C)O)C(C)C)C(C)C)C(C)C)C(C)C [Peptide 2] (H-VVFRVASKVFPAVYCTVSKK-OH; N-terminus and C-terminus assumed)
MIC E. coli (Escherichia coli; 24 h): 128 µg/mL (≈ 57.4 µM)
MIC B. cereus (B. cereus; [1]): + (MIC greater than 256 ug/mL)

CC[C@H](C)[C@H](NC(=O)[C@H](CC(=O)O)NC(=O)[C@H](CCCCN)NC(=O)[C@@H](NC(=O)[C@H](CC(C)C)NC(=O)[C@H](CO)NC(=O)[C@H](CCSC)NC(=O)[C@H](CC(C)C)NC(=O)CN)C(C)C)C(=O)N[C@@H](C)C(=O)N[C@@H](CCCCN)C(=O)N[C@@H](CC(C)C)C(=O)N[C@@H](C)C(=O)N[C@@H](C)C(=O)N[C@@H](CCCCN)C(=O)N[C@@H](CCC(N)=O)C(=O)NCC(=O)N[C@@H](C)C(=O)N[C@@H](CCCCN)C(=O)N[C@@H](CCC(N)=O)C(=O)O [Peptide 9] (H-GLMSLVKDIAKLAAKQGAKQ-OH; N-terminus and C-terminus assumed)
MIC E. coli (Escherichia coli; 24 h): 256 µg/mL (≈ 124 µM)
MIC B. cereus (B. cereus; [1]): + (MIC greater than 256 ug/mL)

CC[C@H](C)[C@H](NC(=O)[C@@H](NC(=O)[C@H](CS)NC(=O)[C@H](Cc1ccc(O)cc1)NC(=O)[C@@H](NC(=O)[C@H](C)NC(=O)[C@@H]1CCCN1C(=O)[C@H](Cc1ccccc1)NC(=O)[C@@H](NC(=O)[C@H](CCCCN)NC(=O)[C@H](CO)NC(=O)[C@H](C)NC(=O)[C@H](CC(C)C)NC(=O)[C@H](CCCCN)NC(=O)CNC(=O)[C@H](CC(C)C)NC(=O)[C@H](C)N)C(C)C)C(C)C)[C@@H](C)O)C(=O)N[C@@H](CO)C(=O)N[C@@H](CCCNC(=N)N)C(=O)N[C@@H](CCCCN)C(=O)O [Peptide 23] (H-ALGKLASKVFPAVYCTISRK-OH; N-terminus and C-terminus assumed)
MIC E. coli (Escherichia coli; 24 h): 128 µg/mL (≈ 59.5 µM)
MIC B. cereus (B. cereus; [1]): + (MIC greater than 256 ug/mL)

CC[C@H](C)[C@H](NC(=O)[C@H](Cc1ccccc1)NC(=O)CN)C(=O)NCC(=O)N[C@@H](CCCCN)C(=O)N[C@@H](CC(C)C)C(=O)N[C@@H](C)C(=O)N[C@@H](CO)C(=O)N[C@@H](CCCCN)C(=O)N[C@H](C(=O)N[C@H](C(=O)N1CCC[C@H]1C(=O)N[C@@H](CO)C(=O)N[C@H](C(=O)N[C@@H](Cc1ccc(O)cc1)C(=O)N[C@@H](CS)C(=O)N[C@@H](CCCCN)C(=O)N[C@H](C(=O)N[C@H](C(=O)NCC(=O)O)[C@@H](C)O)C(C)C)C(C)C)C(C)C)C(C)C [Peptide 24] (H-GFIGKLASKVVPSVYCKVTG-OH; N-terminus and C-terminus assumed)
MIC E. coli (Escherichia coli; 24 h): 128 µg/mL (≈ 62.3 µM)
MIC B. cereus (B. cereus; [1]): + (MIC greater than 256 ug/mL)

CC[C@H](C)[C@H](NC(=O)[C@H](CCCCN)NC(=O)[C@H](Cc1ccccc1)NC(=O)[C@@H](NC(=O)[C@H](C)NC(=O)[C@@H]1CCCN1)C(C)C)C(=O)N[C@@H](C)C(=O)N[C@@H](CO)C(=O)N[C@@H](CCCCN)C(=O)N[C@H](C(=O)N[C@H](C(=O)N1CCC[C@H]1C(=O)N[C@@H](CO)C(=O)N[C@H](C(=O)N[C@@H](Cc1ccc(O)cc1)C(=O)N[C@@H](CS)C(=O)N[C@@H](CCCCN)C(=O)N[C@H](C(=O)N[C@@H](CO)C(=O)N[C@@H](CCCNC(=N)N)C(=O)O)C(C)C)C(C)C)C(C)C)C(C)C [Peptide 29] (H-PAVFKIASKVVPSVYCKVSR-OH; N-terminus and C-terminus assumed)
MIC E. coli (Escherichia coli; 24 h): 128 µg/mL (≈ 58.8 µM)
MIC B. cereus (B. cereus; [1]): + (MIC greater than 256 ug/mL)

CC(C)C[C@H](NC(=O)CNC(=O)[C@H](Cc1ccccc1)NC(=O)[C@H](CC(C)C)NC(=O)[C@H](C)NC(=O)CN)C(=O)N[C@@H](C)C(=O)N[C@@H](CO)C(=O)N[C@@H](CCCCN)C(=O)N[C@H](C(=O)N[C@@H](Cc1ccccc1)C(=O)N1CCC[C@H]1C(=O)N[C@@H](C)C(=O)N[C@H](C(=O)N[C@@H](Cc1ccccc1)C(=O)NCC(=O)N[C@@H](C)C(=O)N[C@@H](Cc1ccccc1)C(=O)N[C@@H](CCCCN)C(=O)N[C@@H](CCCCN)C(=O)O)C(C)C)C(C)C [Peptide 30] (H-GALFGLASKVFPAVFGAFKK-OH; N-terminus and C-terminus assumed)
MIC E. coli (Escherichia coli; 24 h): 256 µg/mL (≈ 125 µM)
MIC B. cereus (B. cereus; [1]): + (MIC greater than 256 ug/mL)

CC[C@H](C)[C@H](NC(=O)[C@H](CCSC)NC(=O)[C@H](CO)NC(=O)[C@@H](NC(=O)[C@H](CC(C)C)NC(=O)[C@H](CO)NC(=O)[C@@H]1CCCN1C(=O)[C@@H](NC(=O)[C@@H](NC(=O)[C@H](CCCCN)NC(=O)[C@H](CO)NC(=O)[C@H](C)NC(=O)[C@@H](NC(=O)[C@H](CCCNC(=N)N)NC(=O)CNC(=O)[C@@H](NC(=O)[C@H](Cc1ccccc1)NC(=O)[C@H](CO)NC(=O)[C@@H](N)CC(C)C)C(C)C)C(C)C)C(C)C)C(C)C)[C@@H](C)CC)C(=O)N[C@@H](CCCCN)C(=O)O [Peptide 55] (H-LSFVGRVASKVVPSLISMIK-OH; N-terminus and C-terminus assumed)
MIC E. coli (Escherichia coli; 24 h): 256 µg/mL (≈ 120 µM)
MIC B. cereus (B. cereus; [1]): + (MIC greater than 256 ug/mL)

CC(C)C[C@H](NC(=O)[C@H](CCCCN)NC(=O)[C@H](Cc1ccccc1)NC(=O)[C@@H](NC(=O)[C@H](C)NC(=O)[C@@H]1CCCN1C(=O)[C@@H](N)CC(C)C)C(C)C)C(=O)N[C@@H](C)C(=O)N[C@@H](CO)C(=O)N[C@@H](CCCCN)C(=O)N[C@H](C(=O)N[C@@H](Cc1ccccc1)C(=O)N1CCC[C@H]1C(=O)N[C@@H](C)C(=O)N[C@H](C(=O)N[C@@H](Cc1ccc(O)cc1)C(=O)N[C@@H](CS)C(=O)N[C@@H](CCCCN)C(=O)N[C@@H](C)C(=O)N[C@@H](CO)C(=O)O)C(C)C)C(C)C [Peptide 62] (H-LPAVFKLASKVFPAVYCKAS-OH; N-terminus and C-terminus assumed)
MIC E. coli (Escherichia coli; 24 h): 128 µg/mL (≈ 59.8 µM)
MIC B. cereus (B. cereus; [1]): + (MIC greater than 256 ug/mL)
